This is an account of results in EP4755880A1, “SUBSTITUTED NITROGEN-CONTAINING BICYCLIC COMPOUND AND USE THEREOF” (Sunshine Lake Pharma Co., Ltd., priority 2023, dated 2025).

Test [1] has as its target PARP1 (Homo sapiens, UniProt P09874). In words: Inhibition of PARP1 enzyme activity (ELISA, chemiluminescence). The note with it: for IC50: ELISA, histone-coated plate, NAD+, 60 min at 25 °C; for Selectivity PARP2/PARP1: ratio of PARP2 IC50 to PARP1 IC50. It is filed as biochemical.
Method: Experimental Objective: To evaluate the inhibitory effect of the compounds of the present invention on the enzyme activities of PARP1 and PARP2 using ELISA.
• 1. histone-coated 384-well plates was prepared: 25 µL of histone solution was added to each well and incubated overnight at 4 °C. • 2. PBST buffer, blocking buffer (PBS buffer with 5% BSA and 0.05% Tween-20 added) and detection buffer (20 mM HEPES pH 7.5 + 100 mM NaCl + 2 mM DTT + 0.002% Tween-20 + 0.1% BSA) were prepared. • 3. The histone-coated 3 84-well plate was washed three times with PBST buffer, blocked at room temperature with 50 µL blocking buffer for 1 hour, and then washed three times with PBST buffer. • 4. Test compounds were prepared as 2000-fold stock solutions in DMSO. 50 nL of the stock solution was mixed with 19.95 µL detection buffer, and 5 µL of the gradient-diluted test compound was transferred to each well. • 5. Enzymatic reaction (PARP1): PARP1 & DNA mix was pre-incubated at 25 °C for 10 minutes. 10 µL of the PARP1 & DNA mix was added to each well and incubated with the test compound at room temperature for 10 minutes. […] Finally, the 384-well plate was washed three times with PBST buffer. Enzymatic reaction (PARP2): PARP2 was pre-incubated at 25 °C for 10 minutes. 10 µL of PARP2 was added to each well and incubated with the test compound at room temperature for 10 minutes. […] Finally, the 384-well plate was washed three times with PBST buffer. • 6. Detection (PARP1): 20 µL of anti-Poly/Mono-ADP Ribose Rabbit mAb was added and incubated at room temperature for 1.5 hours, followed by three washes of the 384-well plate with PBST buffer. Then, 20 µL of diluted anti-rabbit IgG, HRP-linked Antibody (diluted 1:2000 in blocking buffer) was added and incubated at room temperature for 1 hour. After washing the plate three times with PBST buffer, 25 µL of a 1:1 mixture of Femto-ECL Substrate A and Femto-ECL Substrate B was added. Detection (PARP2): 25 µL of Strep-HRP was added and incubated at room temperature for 1 hour, followed by three washes of the 384-well plate with PBS buffer. Then, 25 µL of a 1:1 mixture of Femto-ECL Substrate A and Femto-ECL Substrate B was added. • 7. Chemiluminescence intensity was measured using an Envision multimode microplate reader. • 8. Data Processing
The inhibition rate was calculated in Excel using formula (1). inh% = (Max−Signal)/(Max−Min)*100 [formula]
The IC50 value was obtained by fitting the data in XL-Fit using formula (2). Y = bottom + (top−bottom)/(1+(IC50/X)*HillSlope); [formula] wherein Y is the inhibition percentage and X is the compound concentration.
Test [2] concerns the target PARP2 (Homo sapiens, UniProt Q9UGN5). The test can be described thus: biochemical.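 Also: PARP2 enzyme ELISA on histone-coated plates, Strep-HRP detection with chemiluminescence read-out, 10 min compound preincubation with enzyme, inhibition scaled between Max and Min signal controls.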

PARP1, sequence (P09874 whole entry): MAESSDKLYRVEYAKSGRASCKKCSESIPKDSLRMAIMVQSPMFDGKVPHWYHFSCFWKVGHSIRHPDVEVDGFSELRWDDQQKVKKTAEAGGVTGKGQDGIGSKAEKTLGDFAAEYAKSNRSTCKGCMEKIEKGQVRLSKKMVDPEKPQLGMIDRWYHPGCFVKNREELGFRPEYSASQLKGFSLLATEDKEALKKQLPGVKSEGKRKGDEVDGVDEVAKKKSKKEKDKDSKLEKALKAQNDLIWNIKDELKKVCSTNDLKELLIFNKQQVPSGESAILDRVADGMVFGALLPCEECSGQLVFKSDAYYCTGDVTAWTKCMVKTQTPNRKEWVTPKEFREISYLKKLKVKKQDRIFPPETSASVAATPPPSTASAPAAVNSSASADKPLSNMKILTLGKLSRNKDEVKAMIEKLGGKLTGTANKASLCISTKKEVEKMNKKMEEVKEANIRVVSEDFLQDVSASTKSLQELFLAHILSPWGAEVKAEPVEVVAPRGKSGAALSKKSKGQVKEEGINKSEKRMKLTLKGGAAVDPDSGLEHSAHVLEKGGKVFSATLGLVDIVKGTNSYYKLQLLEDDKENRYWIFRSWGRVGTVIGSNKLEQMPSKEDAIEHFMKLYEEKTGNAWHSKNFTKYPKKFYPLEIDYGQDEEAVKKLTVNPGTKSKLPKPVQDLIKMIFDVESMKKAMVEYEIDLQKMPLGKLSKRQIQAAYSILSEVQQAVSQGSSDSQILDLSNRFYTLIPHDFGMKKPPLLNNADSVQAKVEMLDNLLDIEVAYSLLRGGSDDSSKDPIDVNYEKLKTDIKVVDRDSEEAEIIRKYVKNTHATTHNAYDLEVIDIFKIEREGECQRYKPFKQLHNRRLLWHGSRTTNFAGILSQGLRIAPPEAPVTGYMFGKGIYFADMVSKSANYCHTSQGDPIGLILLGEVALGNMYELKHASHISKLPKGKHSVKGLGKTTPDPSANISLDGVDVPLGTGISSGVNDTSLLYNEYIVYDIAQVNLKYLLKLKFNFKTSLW
PARP2, sequence (Q9UGN5 whole entry): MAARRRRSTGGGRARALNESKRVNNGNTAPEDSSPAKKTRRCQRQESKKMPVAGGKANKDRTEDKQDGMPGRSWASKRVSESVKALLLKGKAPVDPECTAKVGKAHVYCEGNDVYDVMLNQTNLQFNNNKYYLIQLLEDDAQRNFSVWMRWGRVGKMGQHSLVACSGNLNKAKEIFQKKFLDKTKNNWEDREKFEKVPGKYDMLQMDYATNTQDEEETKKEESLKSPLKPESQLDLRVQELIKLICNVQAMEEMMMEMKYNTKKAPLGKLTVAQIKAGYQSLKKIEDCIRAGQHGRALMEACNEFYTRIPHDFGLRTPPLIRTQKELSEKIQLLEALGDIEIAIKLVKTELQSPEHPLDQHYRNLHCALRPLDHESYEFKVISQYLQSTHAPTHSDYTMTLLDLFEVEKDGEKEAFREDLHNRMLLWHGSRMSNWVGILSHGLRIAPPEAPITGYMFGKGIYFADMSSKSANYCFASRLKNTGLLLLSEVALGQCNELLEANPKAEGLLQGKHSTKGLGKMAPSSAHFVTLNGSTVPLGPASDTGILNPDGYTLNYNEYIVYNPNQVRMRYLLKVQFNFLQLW

Usually IC50 stands for the midpoint of a concentration-inhibition curve. A high value points to weaker potency. Regarding `CNC(=O)c1ccc(N2CCN(Cc3cc(OC(C)C(F)(F)F)c4nc(C)c(=O)[nH]c4c3)CC2)c(F)n1` (stereo not drawn) [Example 34, 6-fluoro-N-methyl-5-(4-((2-methyl-3-oxo-8-((1,1,1-trifluoropropan-2-yl)oxy)-3,4-dihydroquinoxalin-6-yl)methyl)piperazin-1-yl)picolinamide], in test [1], it took 2.8 nM to reach half-maximal inhibition (IC50) and the “Selectivity PARP2/PARP1” value turned out to be 359.1. The IC50 in test [2] turned out to be 1.02 µM.
The like results for `CC#Cc1cc(CN2CCN(c3ccc(C#N)nc3)CC2)cc2[nH]c(=O)c(C)nc12` [Example 36, 5-(4-((2-methyl-3-oxo-8-(prop-1-yn-1-yl)-3,4-dihydroquinoxalin-6-yl)methyl)piperazin-1-yl)picolinonitrile] were, in that order, 3 nM, 139.8 and 0.413 µM.
The like results for `CC#Cc1cc(CN2CCN(c3ccc(C(=O)NC)nc3)CC2)c(F)c2[nH]c(=O)c(C)nc12` [Example 40, 5-(4-((5-fluoro-2-methyl-3-oxo-8-(prop-1-yn-1-yl)-3,4-dihydroquinoxalin-6-yl)methyl)piperazin-1-yl)-N-methylpicolinamide] were, in that order, 5.7 nM, more than 1756.9 and more than 10 µM.
As for `CNC(=O)c1ccc(N2CCN(Cc3cc(OC(F)(F)F)c4nc(C)c(=O)[nH]c4c3)CC2)c(F)n1` [Example 17, 6-fluoro-N-methyl-5-(4-((2-methyl-3-oxo-8-(trifluoromethoxy)-3,4-dihydroquinoxalin-6-yl)methyl)piperazin-1-yl)picolinamide], the IC50 came out at 3.6 nM in test [1] and 0.169 µM in test [2]. Also, the “Selectivity PARP2/PARP1” value in test [1] amounted to 46.9.
The like results for `CNC(=O)c1ccc(N2CCN(Cc3cc(-c4cccc(OC)c4)c4nc(C)c(=O)[nH]c4c3)CC2)c(F)n1` [Example 73] were, in that order, 5.7 nM, 2.68 µM and 472.0.
The like results for `CNC(=O)c1ccc(C2=CCN(Cc3cc(C#CC4CC4)c4nc(C)c(=O)[nH]c4c3F)CC2)c(F)n1` [Example 24, 1'-((8-(cyclopropylethynyl)-5-fluoro-2-methyl-3-oxo-3,4-dihydroquinoxalin-6-yl)methyl)-2-fluoro-N-methyl-1',2',3',6'-tetrahydro-[3,4'-bipyridine]-6-carboxamide] were, in that order, 10 nM, more than 10 µM and 1004.6.
The like results for `CC#Cc1cc(CN2CCN(c3ccc(OC(F)F)nc3)CC2)cc2[nH]c(=O)c(C)nc12` [Example 37, 7-((4-(6-(difluoromethoxy)pyridin-3-yl)piperazin-1-yl)methyl)-3-methyl-5-(prop-1-yn-1-yl)quinoxalin-2(1H)-one] were, in that order, 12.9 nM, 1.91 µM and 148.2.
